# Test results from US20120252792A1, “METHODS AND COMPOSITIONS FOR MODULATING RHO-MEDIATED GENE TRANSCRIPTION” (THE REGENTS OF THE UNIVERSITY OF MICHIGAN, priority 2009, published 2012).
# pIC50: −log10 of the molar value.
# What was measured:
# [1] = test system: Rho/MKL1 pathway; assay: SRE.L-firefly luciferase reporter (dual luciferase assay), Gα12QL-transfected PC-3 cells; type: cell-based, human; settings: 19 hrs
# Protocol: (§1) Dual Luciferase Assay: Seed PC-3 prostate cancer cells (40,000 cells/well) were grown in 96-well plates in 10% FBS containing DMEM medium. Cells were transiently transfected with the Gα12QL activator of the Rho/MKL1 pathway, along with the SRE.L-firefly luciferase reporter construct for 6 hours. Additionally, cells were co-transfected with the TK-Renilla luciferase reporter as an indicator of non-specific compound effects. Various concentrations of selected compounds were added to the 96-well plates. Plates were incubated for 19 hours at 37° C. and 5% CO2 in 0.5% FBS containing DMEM medium. Cells were lysed with 1X Passive Lysis Buffer (Promega). Plates were incubated for 30 minutes at room temperature. Luminescence counts were read with a Victor2 (Perkin-Elmer) plate reader.
# [2] = test system: TK-Renilla luciferase reporter; assay: TK-Renilla (pRL-TK) luciferase reporter, indicator of non-specific compound effects; type: cell-based, human; settings: 10 μM, PC-3 cells, 19 hrs
# Protocol: as §1
# [3] = test system: PC-3 prostate cancer cells; assay: WST1 cell viability assay; type: cell-based, human; settings: 10 μM, PC-3 cells, just before lysis
# Protocol: WST1 Cell Viability Assay: One hour prior to cell lysis for the dual luciferase assay, 10 μl per well of WST1 reagent (Roche) was added to the 96-well plates. Plates were incubated for 1 hour at 37° C. and 5% CO2. Cell viability was measured by WST1 absorbance at 450 nm with a Victor2 (Perkin-Elmer) plate reader.
# [4] = In vivo studies using CCG-1423
# [5] = test system: PC-3 cells, melanoma and other cancer cell lines; assay: Cancer cell proliferation and survival (BrdUrd, WST-1, caspase-3; FIG. 2); type: cell-based
# Protocol: A, PC-3 cells were treated for 27 h with 100 μmol/L LPA in the presence or absence of various concentrations of CCG-1423, labeled with BrdUrd, and stained, and absorbance was read 450 nm. B, various cell lines were treated with […] LPA with or without […] CCG-1423, and then on day 8, WST-1 absorbance was read at 450 nm Black columns indicate four melanoma lines with differing expression of RhoC (A375M2 and SK-MeI-147 have high expression, whereas the parental line A375 (used to derive A375M2) and SK-Mel-28 have lower expression); gray columns indicate several other cancer cell lines; white column indicates the nontransformed fibroblast line WI-38. C, A375 and A375M2 cells were treated with 3 μmol/L CCG-1423 or 3 μmol/L daunorubicin for 25 h, and then caspase-3 activity was measured with a fluorescent substrate (Z0DEVD0R110) using excitation at 485 nm and emission detection at 520 nm. In A and C, data are expressed as a percentage of the no FBS control. In B, data are expressed as percentage of the LPA+DMSO control. All data represent n=3.
# [6] = test system: PC-3 prostate cancer cells; assay: Matrigel invasion, spontaneous (FIG. 3); type: cell-based, human; settings: 3 μmol/L, spontaneous invasion through Matrigel
# Protocol: A, LPA stimulates invasion of SKOV-3 but not PC-3 cells. Invasion of Matrigel®-coated filters by serum-starved PC-3 prostate cancer or SKOV-3 ovarian cancer cells were measured with or without 30 μmol/L LPA as chemoattractant. B, CCG-1423 inhibits PC-3 cell invasion, whereas PTX inhibits SKOV-3 cell invasion. The effects of CCG-1423 (3 μmol/L) and PTX (100 ng/mL) on spontaneous (PC-3) or LPA-stimulated (SKOV-3) invasion through Matrigel® were measured. In B, data are expressed as a percentage of control. All data represent n=3.
# [7] = test system: Rho/MKL1 mediated transcription; settings: read-out: IC50 for blocking gene transcription; cited from earlier work
# [8] = test system: Rho-expressing prostate cancer and melanoma cell lines; settings: read-out: IC50 for inhibiting DNA synthesis, cell growth and survival, and Matrigel invasion; cited from earlier work
smiles,measurement,setting,value
CC(ONC(=O)c1cc(C(F)(F)F)cc(C(F)(F)F)c1)C(=O)Nc1ccc(Cl)cc1 (stereo not drawn) [CCG-1423],% inh SRE.L (10 μM),"[1]; 10 μM, DMSO alone = 0%","74, ND %"
same,pIC50,[1],5.82
same,% inh PRL-TK (10 μM),[2],"48, ND %"
same,% inh WST-1 (10 μM),[3],"44, ND %"
same,in vivo toxicity,[4],limited by non-specific toxicity
same,cancer cell proliferation and survival,[5],inhibits
same,PC-3 cell invasion,[6],inhibits
same,pIC50,[7],6.00
same,pIC50,[8],6.00
